Test results: patent US20260374739A1, “SMALL MOLECULAR WEIGHT CHEMICAL COMPOUND TO ANTAGONIZE EPH-EPHRIN TETRAMERIZATION AND INHIBIT BIDIRECTIONAL SIGNALING” (THE BOARD OF REGENTS OF THE UNIVERSITY OF TEXAS SYSTEM, priority 2022, published 2026)
“And” between values parts separate entries of the source, which are not always exact repeats. Equal entries are not always repeated. Where two headings read alike, the source gives them in different places. Marks after values point to notes of the source that are not given here.

Legend:
[1] = biological target: T1, EphrinB2-EphB2 (Homo sapiens, UniProt P29323); experiment: Octet tetramerization inhibition, immobilized human EphrinB2 binding to 50 nM soluble human EphB2; settings: for disruption of unsurmountable tetramer: 0.8-3.2 μM
T1 construct: soluble human EphB1-His, EphB2-His, and EphB4-His ectodomains; commercially available human EphrinB1-Fc (EB1), EphrinB2-Fc (EB2), and EphrinB3-Fc (EB3) ectodomain proteins; purchased
T1 sequence (P29323 19-543 limits assumed): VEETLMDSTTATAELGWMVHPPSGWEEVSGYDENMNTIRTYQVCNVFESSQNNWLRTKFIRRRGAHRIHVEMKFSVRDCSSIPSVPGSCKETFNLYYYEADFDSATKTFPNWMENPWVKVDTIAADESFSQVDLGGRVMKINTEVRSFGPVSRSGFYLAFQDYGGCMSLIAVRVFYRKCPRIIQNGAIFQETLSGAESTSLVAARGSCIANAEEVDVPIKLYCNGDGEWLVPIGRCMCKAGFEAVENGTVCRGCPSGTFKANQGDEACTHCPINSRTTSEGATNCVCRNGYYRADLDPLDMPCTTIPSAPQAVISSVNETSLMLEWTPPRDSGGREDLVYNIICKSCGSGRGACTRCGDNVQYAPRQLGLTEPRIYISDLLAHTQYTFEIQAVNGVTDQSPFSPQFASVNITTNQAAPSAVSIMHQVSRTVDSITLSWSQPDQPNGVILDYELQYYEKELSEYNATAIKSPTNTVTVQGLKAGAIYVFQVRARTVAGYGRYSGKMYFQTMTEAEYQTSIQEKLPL

[2] = biological target: T1, EphrinB2-EphB2; experiment: Octet 80 sec association/500 sec dissociation, immobilized human EphrinB2-Fc binding to soluble human EphB2-His; settings: for EphB2 Inhibition Percent, Inhibition of Association ONLY: at 3.2 μM and 80 seconds; for EphB2 Inhibition Percent, Inhibition of Association ONLY / EphB2 Inhibition Percent, Inhibition of Association-Dissociation: immobilized human EphrinB2, 25 nM soluble human EphB2; for EphB2 Inhibition Percent, Inhibition of Association-Dissociation: at 3.2 μM and 580 seconds; for inhibition at 3.2 µM / IC50 / inhibition: EphB2; for inhibition at 3.2 µM: 25 nM EphB2, 3.2 μM compound, A20-I as max control, 0* = less than 0, no inhibition; for inhibition: highest dose, typically 3.2 μM
How it was run: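 EphrinB2-Fc captured on AHC biosensors, then soluble His-tagged EphB ectodomain (25 nM for % inhibition runs) associated 80 s and dissociated 500 s in PBS, 0.05% Tween-20, 1% DMSO ± compound. Compounds tested at 0.1–3.2 μM with a 10 μM max standard; IC50 from AUC of full traces or at 75 s and 135 s.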

[3] = Absolute AUC/IC50, Table A, EphrinB2-EphB2
[4] = Absolute Association IC50 (300 sec), Table A, EphrinB2-EphB2
[5] = Absolute Dissociation IC50 (450 sec), Table A, EphrinB2-EphB2
[6] = Relative AUC/IC50, Table A, EphrinB2-EphB2, compound 7: association only
[7] = Relative Association IC50 (300 sec), Table A, EphrinB2-EphB2
[8] = Relative Dissociation IC50 (450 sec), Table A, EphrinB2-EphB2
[9] = tetramerization inhibitor IC50 (relative), association step, surmountable tetramer
[10] = read-out: % Inhibition: Association + Dissociation (160 sec)
[11] = read-out: % Inhibition: Association ONLY (80 sec)

SMILES | IC50 [1, 3] | IC50 [1, 4] | IC50 [1, 5] | IC50 [1, 6] | IC50 [1, 7] | IC50 [1, 8] | EphB2 Inhibition Percent, Inhibition of Association ONLY [2] | EphB2 Inhibition Percent, Inhibition of Association-Dissociation [2] | IC50 [1, 9] [nM] | inhibition at 3.2 µM [2, 10] [%] | inhibition at 3.2 µM [2, 11] [%] | also measured
O=S1(=O)CCN(Cc2ccc(O)c3ncccc23)CC1 [Compound 15, 4-((8-hydroxyquinolin-1-ium-5-yl)methyl)thiomorpholin-4-ium 1,1-dioxide chloride] | > 1600 nM | > 1600 nM | > 1600 nM | 620 nM | > 1600 nM | 1150 nM | 33.8% | 46.4% |  |  |  | 
O=[N+]([O-])c1cc(CN2CCS(=O)(=O)CC2)c2cccnc2c1O [Compound 20, 4-((8-hydroxy-7-nitroquinolin-5-yl)methyl)thiomorpholine 1,1-dioxide] | > 3200 nM | > 3200 nM | > 3200 nM |  | 2140 nM | 2090 nM |  |  | > 3000 | 51.7 | 36.7 | inhibition of EphB2-EphrinB2 binding ([2]; association step, general): 40%
Oc1ccc(CN2CCN(c3ccc(Br)cc3)CC2)c2cccnc12 [Compound 26, 5-((4-(4-bromophenyl)piperazin-1-yl)methyl)quinolin-8-ol] |  |  |  |  |  |  | 35.9% | 60.1% | 1200 |  |  | 
Oc1c(Br)cc(CN2CCN(c3ccc(Br)cc3)CC2)c2cccnc12 [Compound 28, 7-bromo-5-((4-(4-bromophenyl)piperazin-1-yl)methyl)quinolin-8-ol] | 360 nM and 530 nM and 590 nM and 510 nM | 380 nM and 580 nM and 680 nM and 780 nM | 350 nM and 400 nM and 580 nM and 630 nM | 220 nM and 370 nM and 230 nM and 320 nM | 300 nM and 330 nM (2×) and 400 nM | 300 nM and 420 nM and 370 nM |  |  | ~300 |  |  | inhibition of unsurmountable tetramer [1]: 100%; disruption of unsurmountable tetramer [1]: complete loss of this structure at 3.2 μM; IC50 ([1]; tetramerization inhibitor IC50, surmountable tetramer): ~300 nM; IC50 ([2]; Association (75″), read-out: Absolute IC50): 320 nM; IC50 ([2]; Association (75″), read-out: Relative IC50): 280 nM; IC50 ([2]; Association (AUC), read-out: Absolute IC50): 360 nM; IC50 ([2]; Association (AUC), read-out: Relative IC50): 280 nM; IC50 ([2]; Dissociation (135″), read-out: Absolute IC50): 250 nM; IC50 ([2]; Dissociation (135″), read-out: Relative IC50): 230 nM; IC50 ([2]; Full AUC, read-out: Absolute IC50): 200 nM; IC50 ([2]; Full AUC, read-out: Relative IC50): 180 nM; inhibition ([2]; read-out: Association (% Inhibited (AUC))): 62.5%; inhibition ([2]; read-out: Association + Dissociation (% Inhibited (AUC))): 78.7%
Oc1c(Br)cc(CN2CCN(c3ccc(Br)cc3)CC2)c2cccnc12 [Compound 30, 7-bromo-5-((4-(4-bromophenyl)piperazin-1-ium-1-yl)methyl)-8-hydroxyquinolin-1-ium chloride] | 260 nM | 600 nM |  | 290 nM and 260 nM |  | 340 nM | 57.7% and 62.5% | 72.9% and 78.7% |  |  |  | 
Oc1ccc(CN2CCN(c3ccc(Br)cn3)CC2)c2cccnc12 [Compound 33, 5-((4-(5-bromopyridin-2-yl)piperazin-1-yl)methyl)quinolin-8-ol] | 2510 nM | > 3200 nM |  | 2190 nM | 1820 nM | 2240 nM |  |  |  | 81.6 | 69.4 | 
Oc1ccc(CN2CCN(Cc3ccccc3)CC2)c2cccnc12 [Compound 41, 5-((4-benzylpiperazin-1-yl)methyl)quinolin-8-ol] | 2090 nM and > 3200 nM | 2820 nM and 3020 nM | 3020 nM and 3000 nM | 2140 nM | 1820 nM | 2240 nM and 2000 nM |  |  |  | 25.3 | 9.1 | 
Oc1ccc(CN2CCN(Cc3ccc(Br)cc3)CC2)c2cccnc12 [Compound 42, 5-((4-(4-bromobenzyl)piperazin-1-yl)methyl)quinolin-8-ol] | 2510 nM |  | 1910 nM | 930 nM | 1020 nM | 1050 nM |  |  |  | 56.3 | 37.8 | 
Oc1c(Br)cc(CN2CCN(Cc3ccc(Br)cc3)CC2)c2cccnc12 [Compound 44, 7-bromo-5-((4-(4-bromobenzyl)piperazin-1-yl)methyl)quinolin-8-ol] | > 3200 nM | > 3200 nM | 380 nM |  | 280 nM | 300 nM |  |  |  | 77.1 | 62.1 | tetramerization inhibitor activity [1]: appears promising
Oc1ccc(CN2CCN(Cc3ccc(C(F)(F)F)cc3)CC2)c2cccnc12 [Compound 48, 5-((4-(4-(trifluoromethyl)benzyl)piperazin-1-yl)methyl)quinolin-8-ol] | > 1600 nM | > 1600 nM | > 1600 nM | > 1600 nM | > 1600 nM | > 1600 nM |  |  |  | 46.2 | 21.3 | 
O=C(Cc1ccccc1)Nc1ccc(N2CCN(Cc3ccc(O)c4ncccc34)CC2)cc1 [Compound 51, N-(4-(4-((8-hydroxyquinolin-5-yl)methyl)piperazin-1-yl)phenyl)-2-phenylacetamide] | 1510 nM | 1450 nM | 1290 nM | 1020 nM | 980 nM | 930 nM |  |  | ~1200 | 78.8 | 64.8 | disruption of unsurmountable tetramer [1]: able to inhibit a small amount of the EphrinB2-EphB2 unsurmountable tetramer
Oc1ccc(CN2CCN(c3ccc(F)cc3F)CC2)c2cccnc12 [Compound 62, 5-((4-(2,4-difluorophenyl)piperazin-1-yl)methyl)quinolin-8-ol] | > 1600 nM | > 1600 nM | > 1600 nM | > 1600 nM | > 1600 nM | > 1600 nM | 0*% | 0*% |  |  |  | 
COc1ccc2[nH]cc(C(=O)N3CCOCC3)c2c1 [Compound 63, (5-methoxy-1H-indol-3-yl)(morpholino)methanone] | > 3200 nM | > 3200 nM | > 3200 nM | > 3200 nM | > 3200 nM | > 3200 nM |  | 0*% |  | 1.3 | 4.3 | inhibition of EphrinB2-EphB interactions ([2]; 3.2 μM, EphB1, EphB2 and EphB4): showed no activity across the board
